ChEMBL document CHEMBL4028808, “Design and synthesis of selective CDK8/19 dual inhibitors: Discovery of 4,5-dihydrothieno[3',4':3,4]benzo[1,2-d]isothiazole derivatives” (Bioorg Med Chem, 2017)
The source made the active and inactive calls. No cut-off for these calls is given here.

Assays:
[1] = molecular target: Tyrosine-protein kinase JAK1 (Homo sapiens) (UniProt P23458); experiment: Inhibition of JAK1 (unknown origin) at <1 uM using biotinylated poly[Glu:Tyr] (4:1) as substrate pretreated for 5 mins followed by substrate addition measured after 10 mins by Alphascreen assay
[2] = molecular target: Mitogen-activated protein kinase 14 (Homo sapiens) (UniProt Q16539); experiment: Inhibition of p38alpha (unknown origin) at <1 uM using MBP as substrate preincubated for 5 mins followed by substrate addition measured after 60 mins in presence of [gamma32P]ATP by scintillation counter method
[3] = molecular target: Dual specificity tyrosine-phosphorylation-regulated kinase 1A (Homo sapiens) (UniProt Q13627); experiment: Binding affinity to partial length wild-type human DYRK1A (H129 to S509 residues) expressed in mammalian expression system assessed as unbound drug level at 300 nM by KINOMEscan assay
RPMI-8226 = experiment: Growth inhibition of human RPMI8226 cells after 196 hrs by CellTiter-Glo luminescence assay; type: functional; settings: RPMI-8226, 196 h

Tyrosine-protein kinase JAK1 (Homo sapiens), sequence (P23458 whole entry): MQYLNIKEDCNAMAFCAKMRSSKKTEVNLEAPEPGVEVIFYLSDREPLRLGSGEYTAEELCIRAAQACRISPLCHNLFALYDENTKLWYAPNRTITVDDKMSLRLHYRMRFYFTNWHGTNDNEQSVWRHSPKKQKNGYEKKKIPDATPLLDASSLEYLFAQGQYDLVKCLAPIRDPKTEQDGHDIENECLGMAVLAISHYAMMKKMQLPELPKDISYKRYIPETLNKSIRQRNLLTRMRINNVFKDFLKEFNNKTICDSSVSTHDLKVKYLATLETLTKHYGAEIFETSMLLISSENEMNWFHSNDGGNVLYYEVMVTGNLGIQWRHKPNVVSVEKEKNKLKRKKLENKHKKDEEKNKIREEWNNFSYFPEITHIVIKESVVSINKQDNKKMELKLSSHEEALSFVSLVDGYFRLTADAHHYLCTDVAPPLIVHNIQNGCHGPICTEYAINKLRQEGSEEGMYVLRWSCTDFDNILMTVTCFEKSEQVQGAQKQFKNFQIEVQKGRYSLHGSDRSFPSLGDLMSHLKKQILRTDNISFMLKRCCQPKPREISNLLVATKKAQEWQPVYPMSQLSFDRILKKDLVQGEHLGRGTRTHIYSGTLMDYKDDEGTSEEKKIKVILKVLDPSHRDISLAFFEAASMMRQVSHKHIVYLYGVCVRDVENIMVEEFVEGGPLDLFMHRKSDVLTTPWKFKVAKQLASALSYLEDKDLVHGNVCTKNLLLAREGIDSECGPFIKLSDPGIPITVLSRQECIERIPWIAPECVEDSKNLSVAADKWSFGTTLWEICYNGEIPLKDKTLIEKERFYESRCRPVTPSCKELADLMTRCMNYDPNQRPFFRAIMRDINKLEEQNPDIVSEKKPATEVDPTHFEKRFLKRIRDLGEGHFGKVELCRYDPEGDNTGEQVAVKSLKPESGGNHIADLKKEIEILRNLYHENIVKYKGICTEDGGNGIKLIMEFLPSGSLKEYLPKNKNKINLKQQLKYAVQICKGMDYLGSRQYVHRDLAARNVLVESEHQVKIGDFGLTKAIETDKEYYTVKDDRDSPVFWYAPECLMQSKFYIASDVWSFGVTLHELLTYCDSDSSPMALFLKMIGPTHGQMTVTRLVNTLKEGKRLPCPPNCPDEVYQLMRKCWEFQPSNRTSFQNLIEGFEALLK
Mitogen-activated protein kinase 14 (Homo sapiens), sequence (Q16539 whole entry, the tested form may be a part): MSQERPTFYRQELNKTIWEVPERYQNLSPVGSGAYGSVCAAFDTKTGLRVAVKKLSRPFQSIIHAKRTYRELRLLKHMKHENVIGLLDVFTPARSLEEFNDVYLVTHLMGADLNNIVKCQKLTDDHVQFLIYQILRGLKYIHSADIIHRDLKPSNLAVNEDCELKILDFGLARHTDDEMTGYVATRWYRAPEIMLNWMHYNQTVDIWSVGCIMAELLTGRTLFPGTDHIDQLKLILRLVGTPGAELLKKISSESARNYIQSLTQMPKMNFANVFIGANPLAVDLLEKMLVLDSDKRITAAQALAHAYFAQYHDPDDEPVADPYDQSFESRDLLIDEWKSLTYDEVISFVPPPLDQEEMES

## COCCNC(=O)c1ccc(Oc2sc(C(N)=O)c3c2-c2sncc2CC3)cn1
[1]
  inhibition: inactive
[2]
  inhibition: inactive
[3]
  Fu: 0.47%
RPMI-8226
  GI50: 2.5 nM
